In one data set the test system is PD-L1 and B7H3. The data set is described as follows: PD-L1 and B7H3 expression after HDAC6 inhibitor treatment in MSI and MSS colorectal cancer cell lines. The note with it: IC50 and half-IC50 concentrations; MSS cell line compared with MSI cell line; FIG. 15. The data set is classed as cell-based. As to the method:
The IC50 values of the HDAC6 inhibitor (Nexturastat A) in three MSI colorectal cancer cell lines (DLD-1, HCT116, and MC38) and three MSS colorectal cancer cell lines (SW620, HT29, and CT26) were determined. The cells were then treated with the inhibitor at the IC50 and half-IC50 concentrations (concentration corresponding to 1/2 of the IC50 value), and the expression levels of the immune checkpoint proteins PD-L1 and B7H3 were measured.

In data set [1] the test system is CT26. The data set is described as follows: Animal experiment using HDAC6 inhibitor with or without anti-PD-L1 antibody, CT26 tumors. The note with it: during treatment with HDAC6 inhibitor; FIG. 9D. In kind it is in vivo. As to the method:
The animal experiment using an HDAC6 inhibitor was conducted using a total of three groups, a control group (control), an HDAC6i (Next A) group, and an HDAC6i (Next A)+anti-PD-L1 group. Nexturastat A (SellekChem) was used as HDAC6i (HDAC6 inhibitor), and #BE0101(Bioxcell) was used as an anti-PD-L1 antibody. CT26 (1x10^6) cells and BALB/C mice were used. Three mice for the control group, three mice for the HDAC6i group, and four mice for the HDAC6i+anti-PD-L1 group were used.
• HDAC6i group: HDAC6i 20 mpk(mg/kg) intraperitoneally injected daily • HDAC6i+anti-PD-L1 group: HDAC6i 20 mpk intra peritoneally injected every day and anti-PD-L1 antibody 10 mpk intra peritoneally injected three times per week.
In addition, paraffin blocks of tumor tissues were prepared for histological staining, and subjected to H&E and TUNEL assay in order to investigate cell death. […]
Additionally, the expression of related genes was examined by real-time PCR after the isolation of RNA form tumors. In the animal experiment according to an example of the present invention, the mRNA changes of PD-L1, TNF-a and IFN-γ (pro-inflammatory cytokines), IL-6 (anti-inflammatory cytokine), and IRF-1 (target gene for JAK2/STAT1 signaling) were measured, and the results are shown in FIG. 11.

For another data set, the system named is PD-L1. The data set is described as follows: PD-L1 expression (real-time PCR, western blot) in colorectal cell lines 48 hours after HDAC inhibitor treatment. The data set is classed as cell-based. The conditions noted are these: for PD-L1 expression at the RNA and protein levels: depending on the concentration; for PD-L1 expression: IC50 and 1/2 IC50, 48 hours, FIG. 2. As to the method:
The HDAC3 inhibitor experiment was conducted by harvesting cells 48 hours after the treatment at each inhibitor concentration and obtaining RNA and proteins. RGFP966 (S7229) purchased from SellekChem was used as an HDAC3 inhibitor. Specifically, SW620, LS513, DLD-1, CT26, and MC38 were individually cultured, and the experiments were conducted using the IC50 and 1/2 IC50 concentration on the basis of the previously determined IC50 concentration. RNA and protein samples were collected 48 hours after RGFP966 treatment. The RNA samples were isolated using the TRIzol, isopropanol, and chloroform, and the protein samples were collected by lysis with a lysis buffer (Roche, 4719956001). RNA was synthesized into cDNA using a cDNA synthesis kit (Bioneer, K-2044-B), and real-time PCR was performed using a method according to SYBR (Applied Biosystems, 4367659). Proteins were quantified using the Bradford assay (Bio-Rad, 50000006), and subjected to loading, transfer, blocking (3% skim milk; BD, 232100), primary antibody (24 h, 4°C), and secondary antibody sequentially, thereby developing PD-L1.
The HDAC6 inhibitor experiment was conducted by the same method as in the HDAC3 inhibitor experiment of Experimental Example 3, and Nexturastat A HDAC6 selective inhibitor purchased from SellekChem was used as an HDAC6 inhibitor.
The HDAC8 inhibitor experiment was conducted by the same method as in the HDAC3 inhibitor experiment of Experimental Example 3, and PCI-34051 HDAC8 selective inhibitor purchased from SellekChem was used as an HDAC8 inhibitor.
The HDAC6 and HDAC8 inhibitor experiment was conducted by harvesting cells 48 hours after the treatment and then obtaining RNA and proteins.

Another data set has as its system HT29. Briefly: IC50 concentration at which 50% of cells are dead, inhibitor treatment for 48 hours. The data set is classed as cell-based. The conditions noted are these: Homo sapiens, HT-29; Table 4; HT29, MSS (48hr); read-out: IC50(mean±SD). As to the method:
(§1) The IC50 concentration, which is the concentration at which 50% of cells are dead, was obtained by treating each cell line with an inhibitor at different concentrations for 48 hours and then determining the concentrations at which 50% of the cells were dead. Especially, the results obtained by treating various MSS cell lines (SW620, LS513, HT29, and CT26) with HDAC6i are shown in Table 4 below.

For the next data set, the system named is SW620. The data set is described as above. The conditions noted are these: Homo sapiens, SW-620, Table 3, SW620 (MSS), read-out: IC50(mean±SD). The data set is classed as cell-based. As to the method: as §1
The subject of another data set is DLD-1. The description is as above. In kind it is cell-based. The note with it: Homo sapiens, Table 3, DLD-1 (MSI), read-out: IC50(mean±SD). As to the method: as §1
The subject of another data set is LS513. Described as above. In kind it is cell-based. The conditions noted are these: Homo sapiens, LS-513, Table 3, LS513 (MSS), read-out: IC50(mean±SD). As to the method:
as §1

Data set [2] deals with CT26. The data set is described as above. The data set is classed as cell-based. The conditions noted are these: Mus musculus; Table 4; CT26, MSS (48hr); read-out: IC50(mean±SD). As to the method:
as §1

In the case of `CCCCN(Cc1ccc(C(=O)NO)cc1)C(=O)Nc1ccccc1` [Nexturastat A], the B7H3 expression result with PD-L1 and B7H3 is given as “distinct increase tendencies”. Moreover, the PD-L1 expression entry in the data set on PD-L1 and B7H3 is “distinct increase tendencies”. Besides, the “body weight of the mice” value with CT26 [1] is recorded as “not reduced”. For the same compound, the “PD-L1 expression at the RNA and protein levels” value in the data set on PD-L1 (MSS cell lines (SW620, LS513, HT29, and CT26), FIG. 4) is on record as “increase”. The half-inhibitory concentration (IC50) is 11.3 µM in the data set on HT29; 6.8 µM in the data set on SW620; 10.8 µM with DLD-1; 26.9 µM with LS513; 27.1 µM in the data set on CT26 [2].

`COc1ccc(Cn2ccc3ccc(C(=O)NO)cc32)cc1` [PCI-34051]: the “PD-L1 expression at the RNA and protein levels” value in the data set with PD-L1 (MSS cell lines (SW620, LS513, and CT26), FIG. 6) is “increase”. In addition, the results for the IC50 in the data set on SW620, with DLD-1 and with LS513 were 31.8 µM, 6.36 µM and 19.6 µM, respectively.

Turning to `Nc1cc(F)ccc1NC(=O)/C=C/c1cnn(C/C=C/c2ccccc2)c1` [RGFP966], the PD-L1 expression entry with PD-L1 (MSS cell lines (SW620, LS513, and CT26), compared with HDAC6 and HDAC8) is “small increases”; with PD-L1 (mouse cells) it was “decrease tendency”. Moreover, the IC50 is 23.8 µM with SW620, 119 µM in the data set on DLD-1 and 43.1 µM in the data set on LS513.

For the origin of these results see EP4595976A1, “COMPOSITION FOR TREATING CANCER CONTAINING HISTONE DEACETYLASE INHIBITOR, AND ANTICANCER ADJUVANT FOR CANCER IMMUNOTHERAPY” (Samsung Life Public Welfare Foundation, priority 2022, dated 2024).
